Assay results from patent publication US6358964B1, “Adenosine, A3 receptor modulators” (priority 2000, dated 2002).

Biological target: T1, human recombinant A3 adenosine receptors (Homo sapiens, UniProt P0DMS8)
T1 construct: expressed in transfected cells; host or cells: CHO cells
T1 sequence (P0DMS8 1-318): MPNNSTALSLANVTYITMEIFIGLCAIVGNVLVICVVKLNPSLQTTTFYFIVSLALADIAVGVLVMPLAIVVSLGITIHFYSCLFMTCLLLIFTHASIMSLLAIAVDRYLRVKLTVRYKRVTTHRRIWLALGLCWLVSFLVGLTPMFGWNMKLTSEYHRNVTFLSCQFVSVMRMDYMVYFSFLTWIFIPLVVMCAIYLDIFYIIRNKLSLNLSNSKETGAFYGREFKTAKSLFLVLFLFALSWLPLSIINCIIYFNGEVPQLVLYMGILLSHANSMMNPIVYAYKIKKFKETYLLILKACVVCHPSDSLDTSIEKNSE
Assay: Human cloned A3 adenosine receptor binding assay ([3H]MRE3008-F20 displacement, CHO membranes)
Conditions: radioligand binding, read-out: binding affinity at human A3 receptors (hA3)
Description: Inhibitory binding constant, Ki, values can be calculated from those of IC50 according to the Cheng & Prusoff equation (Cheng and Prusoff, Biochem. Pharmacol. 22:3099-3108 (1973)), Ki=IC50/(1+[C*]/KD*), where [C*] is the concentration of the radioligand and KD* its dissociation constant.
The expression of the human […], A2A and A3 receptors in CHO cells has been previously described (Klotz et al., 1998). The cells were grown adherently and maintained in Dulbecco's modified Eagle's medium with nutrient mixture F12 without nucleosides at 37° C. in 5% CO2/95% air. Cells were split two or three times weekly and then the culture medium was removed for membrane preparations. […]
Binding of [^3H] […] Bound and free radioactivity were separated by filtering the assay mixture through Whatman GF/B glass-fiber filters using a Micro-mate 196 cell harvester (Packard Instrument Company). The filter bound radioactivity was counted on Top Count (efficiency 57%) with Micro-Scint 20. The protein concentration was determined according to a BioRad method (Bradford, M. M., “A rapid and sensitive method for the quantification of microgram quantities of protein utilizing the principle of protein dye-binding,” Anal. Biochem. 72, 248, 1976) with bovine albumin as reference standard.

Structure (SMILES) | Ki [nM]
COc1ccc(NC(=O)Nc2nc3ccc(Cl)cc3c3nc(-c4ccco4)nn23)cc1 [Compound 1] | 0.14
O=C(Nc1cccc(Cl)c1)Nc1nc2ccc(Cl)cc2c2nc(-c3ccco3)nn12 [Compound 2] | 0.19
